# Experimental data as given in patent US20180185308A1, “COMPOSITIONS AND METHODS FOR TREATING INFLAMMATORY DISEASE OR CONDITIONS” (Matinas BioPharma Nanotechnologies, Inc., priority 2015, published 2018).
# Key:
# [1] = Solubility of ibuprofen in oils; assay type: physicochemical
# gastric mucosa = assay: Evaluation of gastric mucosa for lesions/erosions in rats after oral dosing; assay type: in vivo, Male Sprague Dawley rats
# Description: Male Sprague Dawley rats were treated orally (one hour prior to right hind footpad injection of carrageenan) with vehicle, a commercial preparation of ibuprofen or ibuprofen formulated in either crystal or geode cochleates and were evaluated for effects of treatment on inflammatory edema. Animals were sacrificed five hours after dosing with test articles (four hours after carrageenan injection). Efficacy evaluation was based on weight difference due to inflammation-induced swelling in injected (right) vs. uninjected (left) paws. In addition, gastric mucosa were evaluated for differences in incidence and severity of mucosal congestion and erosions.
# [2] = test system: carrageenan-induced paw inflammation; assay: Rat carrageenan-induced paw inflammation (paw edema) assay; assay type: in vivo, Male Sprague Dawley rats; details: oral, one hour prior to carrageenan, paw weight difference four hours after carrageenan
# Description: The in vivo efficacy if NSAID cochleates was tested in a rat carrageenan-induced paw inflammation assay.
# Two types of ibuprofen-containing cochleates were prepared, crystal cochleates and geode cochleates. The cochleates were prepared with using soy phosphatidylserine as a negative phospholipid. To prepare the ibuprofen geode cochleate, the soy phosphatidylserine was combined with castor oil and ibuprofen and mixed to form a stable emulsion comprising a mixture of liposomes and lipid monolayers comprising the phosphatidylserine surrounding a hydrophobic domain (castor oil), with the ibuprofen dispersed within the castor oil. […] Crystal and geode cochleates containing 50, 10, 2, 0.4, or 0.1 mg/kg of ibuprofen were prepared. Male Sprague Dawley rats were treated orally (one hour prior to right hind footpad injection of carrageenan) with vehicle, a commercial preparation of ibuprofen or ibuprofen formulated in either crystal or geode cochleates and were evaluated for effects of treatment on inflammatory edema. Animals were sacrificed five hours after dosing with test articles (four hours after carrageenan injection). Efficacy evaluation was based on weight difference due to inflammation-induced swelling in injected (right) vs. uninjected (left) paws. In addition, gastric mucosa were evaluated for differences in incidence and severity of mucosal congestion and erosions.
# [3] = rats, ibuprofen at 50 mg/kg oral
smiles,measurement,setting,value
"CC(C)Cc1ccc(C(C)C(=O)O)cc1 (stereo not drawn) [Commercial ibuprofen, ibuprofen]",solubility in castor oil compared with other oils,[1],substantially more soluble in castor oil than other oils
same,rats with gastric lesions (incidence),"gastric mucosa; 10 mg/kg, oral",1 of 10
same,rats with gastric lesions (incidence),"gastric mucosa; 10 mg/kg, oral, listed as commercial preparation of ibuprofen",Some rats
same,number of gastric lesions and total stomach lesion length (in words),"gastric mucosa; 50 mg/kg, oral",significantly increased numbers of gastric lesions and increased total stomach lesion length
same,Average Size of Lesion,gastric mucosa; [3],7.2 ± 1.9
same,Number of Lesions per Animal,gastric mucosa; [3],4.1 ± 0.8
same,Number of Animals with Lesions,"gastric mucosa; rats, ibuprofen at 50 mg/kg oral, five hours after dosing, groups of 10",9
same,rats with gastric lesions (incidence),"gastric mucosa; single-dose 50 mg/kg (highest dose), oral",9 of 10
same,ED50,[2],30 mg/kg
